{
  "source": "paper PMC6332026",
  "about": "“Synthesis and Pharmacochemistry of New Pleiotropic Pyrrolyl Derivatives” (Molecules, 2015)",
  "key": {"[1]": {"tested_on": "carrageenan-induced rat paw edema", "set-up": "method as in PMID 7714750", "conditions": "dose 0.44 mmol/kg; cited from earlier work"}, "trypsin": {"biological_target": "T1, trypsin (Bos taurus, UniProt P00760)", "T1 construct": "purchased Sigma Chemical, Co. (St. Louis, MO, USA); host or cells: bovine pancreas", "T1 sequence (P00760 24-246)": "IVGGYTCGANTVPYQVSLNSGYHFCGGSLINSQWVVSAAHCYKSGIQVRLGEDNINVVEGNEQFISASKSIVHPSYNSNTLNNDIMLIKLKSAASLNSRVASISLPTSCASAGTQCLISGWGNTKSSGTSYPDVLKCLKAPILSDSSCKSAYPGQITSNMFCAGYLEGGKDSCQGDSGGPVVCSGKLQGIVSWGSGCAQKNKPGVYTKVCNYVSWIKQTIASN", "assay": "Inhibition of the proteolytic activity of trypsin", "format": "biochemical", "conditions": "bovine albumin substrate, pH 7.6; read-out: TP IC50 (inhibition of trypsin)", "text": "Trypsin is an enzyme with an active role in inflammation. Thus, we studied the anti-proteolytic ability of the pyrrole derivatives, using salicylic acid as a reference compound. […] Comparing Compounds 2iv and 2v, the insertion of an electron-acceptor substituent (Cl) on the phenyl ring (substituent Ar^2) and the simultaneous increase of the volume of substituent Ar^2 (expressed as molar refractivity) led to an enhancement of the anti-proteolytic activity.\nCarrageenan, type K, was commercially available. Cycloxygenase-2 (COX-2) and interleukin-6 (IL-6) EIA Kit, Item No. 583371 were purchased from Cayman. Trolox was obtained from Aldrich Chemical Co. (Milwaukee, WI, USA). All starting materials were obtained from commercial sources, and they were used without further purification.\nThe tested compounds (concentrations varying from 10 μΜ–100 μΜ in DMSO) were dissolved in a phosphate buffer (0.1 M K2HPO4–NaH2PO4·2H2O, pH = 7.6), and 0.2 mL of trypsin 0.075 mg/mL were added. The mixture was incubated at room temperature for 20 min, and then, 1 mL of bovine albumin (6 g/100 mL) was added. The mixture was incubated at 37 °C for 30 min. The reaction was stopped with the addition of 1 mL of trichloroacetic acid (5% w/w) Separation of the phases followed, with measurement of the supernatants at 280 nm at room temperature. IC50 values were determined."}, "[2]": {"tested_on": "carrageenan-induced rat paw edema", "assay": "Inhibition of rat paw edema induced by carrageenan", "format": "in vivo, Fischer 344 rats", "conditions": "Rattus norvegicus, ip; 0.01 mmol/kg body weight, intraperitoneally, 3.5 h; read-out: CPE % inhibition of rat paw edema induced by carrageenan", "procedure": "The pyrrolyl derivatives, as well as their precursor chalcones were tested in vivo for the inhibition of rat paw edema induced by carrageenan. […] […]. For Compounds 2i, 2iii, 2iv and 2v, we determined their ED50 values. […]. The finding supports the primary idea of this design.\nEdema was induced in the right hind paw of Fischer 344 rats (150–200 g). In the study, both males and females were included, with the exemption of pregnant females. The animals, which have been bred in our laboratory, were housed under standard conditions and received a diet of commercial food pellets and water ad libitum during maintenance. One hour before the onset of the experiment, food and water were removed. The tested compounds (dose 0.01 mmol/kg body weight) were diluted in water with a few drops of Tween 80, and they were administered intraperitoneally simultaneously with the intradermal injection of 0.1 mL 2% of carrageenan in water. The animals were euthanatized 3.5 h after the carrageenan administration. The difference between the weight of injected and uninjected paws was calculated for each animal and was compared to control animals, which were treated with water. Indomethacin was used as a reference compound in 0.01 mmol/kg. The results were expressed as the percent inhibition of the edema (CPE %)."}, "soybean lipoxygenase": {"biological_target": "T2, soybean lipoxygenase (Glycine max, UniProt P08170)", "T2 construct": "purchased Sigma Chemical, Co. (St. Louis, MO, USA)", "T2 sequence (P08170 1-839)": "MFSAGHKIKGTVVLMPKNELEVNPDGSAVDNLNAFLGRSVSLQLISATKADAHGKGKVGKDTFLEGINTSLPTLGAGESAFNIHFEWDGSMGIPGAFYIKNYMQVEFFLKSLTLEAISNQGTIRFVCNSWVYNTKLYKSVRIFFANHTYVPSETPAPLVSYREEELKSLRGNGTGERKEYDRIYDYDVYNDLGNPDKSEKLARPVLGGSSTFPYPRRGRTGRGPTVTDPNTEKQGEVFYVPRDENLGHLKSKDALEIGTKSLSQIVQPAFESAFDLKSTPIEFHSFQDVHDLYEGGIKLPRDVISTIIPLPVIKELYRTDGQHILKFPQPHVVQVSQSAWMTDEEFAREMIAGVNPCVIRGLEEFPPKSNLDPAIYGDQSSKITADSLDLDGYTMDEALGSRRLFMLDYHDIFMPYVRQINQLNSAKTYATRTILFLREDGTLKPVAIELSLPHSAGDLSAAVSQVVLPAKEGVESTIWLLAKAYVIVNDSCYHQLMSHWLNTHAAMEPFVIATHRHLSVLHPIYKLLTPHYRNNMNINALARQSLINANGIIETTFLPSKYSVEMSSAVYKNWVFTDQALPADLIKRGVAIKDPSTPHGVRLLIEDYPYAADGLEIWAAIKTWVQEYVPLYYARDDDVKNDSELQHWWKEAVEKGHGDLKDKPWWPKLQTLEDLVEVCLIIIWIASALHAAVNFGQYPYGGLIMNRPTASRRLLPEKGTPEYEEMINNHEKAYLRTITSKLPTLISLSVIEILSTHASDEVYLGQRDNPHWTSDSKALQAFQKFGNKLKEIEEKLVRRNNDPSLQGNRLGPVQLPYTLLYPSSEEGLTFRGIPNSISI", "assay": "Inhibition of soybean lipoxygenase (UV absorbance-based enzyme assay)", "format": "biochemical", "conditions": "pH 9.00, read-out: LOX IC50", "procedure": "Lipoxygenase catalyzes the first two steps in the metabolism of arachidonic acid to leukotrienes. LTB4 generation is important in the pathogenesis of neutrophil-mediated inflammatory diseases with a marked relation to the severity of cardiovascular diseases, asthma and cancer. We evaluated the synthesized pyrroles for their ability to inhibit soybean LOX by the UV absorbance-based enzyme assay. […] The inhibition of COX-2, as a peroxidase, was determined by a colorimetric assay with the oxidation of N,N,N′,N′-tetramethyl-p-phenylenediamine (TMPD).\nThe tested compounds were dissolved in DMSO, and the final concentration was 100 μΜ. The compounds were incubated at room temperature with sodium linoleate as a substrate (0.1 mL) in a buffer solution of Tris:HCl (pH 9.00) and 0.2 mL of a solution of soybean lipoxygenase."}, "[3]": {"assay": "Interaction with the stable free radical DPPH (reducing activity)", "conditions": "DPPH 50 μM", "procedure": "2,2-Diphenyl-1-picrylhydrazyl (DPPH) is a lipophilic, free, stable radical, which absorbs at 517 nm (violet color). Upon reduction, decolorization is observed that is stoichiometric to the number of received electrons and is representative of the antioxidant ability of compounds. […] This interaction, which indicates their radical scavenging ability in an iron-free system, was measured at 100 and 1000 μM after 20 and 60 min, whereas the final concentration of DPPH was stable at 50 μΜ.\n[…] The absorbance was measured at 517 nm after 20 and 60 min at room temperature."}},
  "data": [
    {"smiles": "O=C(c1ccccc1)c1ccc[nH]1", "note": "[2-benzoylpyrrole]", "values": [
      {"measurement": "inhibition of carrageenan-induced rat paw edema", "setting": "[1]", "result": 34, "unit": "%"}
    ]},
    {"smiles": "O=C(O)c1ccccc1O", "note": "[Salicylic acid, reference compound]", "values": [
      {"measurement": "IC50", "setting": "trypsin", "result": 100, "unit": "µM"}
    ]},
    {"smiles": "Cc1ccc(C(=O)c2ccc(CC(=O)O)n2C)cc1", "note": "[Tolmetin, reference compound]", "values": [
      {"measurement": "inhibition in vivo at 10 µmol/kg", "setting": "[2]", "result": 76, "unit": "%"},
      {"measurement": "IC50", "setting": "soybean lipoxygenase", "result": 190, "unit": "µM"},
      {"measurement": "RA % (interaction with DPPH)", "setting": "[3]; 100 μM compound, 20 min", "result": 3, "unit": "%"},
      {"measurement": "RA % (interaction with DPPH)", "setting": "[3]; 100 μM compound, 60 min", "result": 3, "unit": "%"},
      {"measurement": "RA % (interaction with DPPH)", "setting": "[3]; 1000 μM compound, 20 min", "result": 4, "unit": "%"},
      {"measurement": "RA % (interaction with DPPH)", "setting": "[3]; 1000 μM compound, 60 min", "result": 9, "unit": "%"}
    ]},
    {"smiles": "O=C(c1ccccc1)c1cc[nH]c1", "note": "[3-benzoylpyrrole]", "values": [
      {"measurement": "inhibition of carrageenan-induced rat paw edema", "setting": "[1]", "result": 43, "unit": "%"}
    ]}
  ]
}
